Test system: Exon1 Q46
Assay: Circular dichroism of Exon1 Q46, predominantly α-helical state
Assay type: biochemical
Conditions: increasing doses
Experimental: Protein samples were diluted with buffer to 7.5 µM prior to Circular Dichroism (CD) measurements. Measurements were conducted at room temperature.
Four spectra at each measurement were taken every 1 nm from 200 to 260 nm, scanning at 50 nm/min with an averaging time of 1 sec. Spectra were obtained from samples in 20 mM phosphate, pH 7.4. Ten scans were averaged for each sample spectrum
Single-wavelength readings at 222 nm were obtained. After subtraction of the Trx contribution, the α-helical content of Httex1 was estimated from its mean residue ellipticity (MREHttex1) at 222 nm. This calculation was conducted as described by Bravo-Arredondo (Bravo-Arredondo, J.M. et al., J Biol Chem. 2018 Dec 21;293(51):19613-19623).
MRE Exon-1 […] and Q46 (Mean Residue Ellipticity) was measured every 1 sec for 300 sec; the 301 readings for each sample were averaged and MRE Trx subtracted. The number of amino acids in each sample to experience a change in helicity was estimated using a previously developed helix-coil transition model, which gave the change in fraction of helicity (ΔfHelix) by the following equation: […]
where MRE Exon1 Q26 or Q46 (MREHttex1 in the formula) describes the helix-coil transition, obtained from the difference between MRE Eon1 Q26 or Q46 at 222 nm of the fusion protein at the given temperature (in our case 37° C.) and the product of MRE Trx at 222 nm at the same temperature and the fraction of residues comprised by Trx in that particular construct, and
In order to calculate an equilibrium of the two states model, percent α-helicity was calculated using the relation of MREHttex1 = 0 and -34700 (deg cm^2 dmol^-1) for 0% and 100% helicity, respectively.
The CD measurements protocol for Compound 101 was the same as outlined above except that from 206 nm - 210 nm and 220 nm - 224 nm, the step size was 0.2 nm, and the bandwidth was 1 nm.

Cc1[nH]c2ccc(C(=O)NCCN(C(C)C)C(C)C)cc2c1C [Compound 22]
effect of increasing doses on the predominantly α-helical state of Exon1 Q46: decreases the proportion of a predominantly α-helical state

Reference: patent publication US20230218573A1, “INDOLE COMPOUNDS FOR THE TREATMENT OF NEURODEGENERATIVE DISEASES” (GALYAN BIO, INC., priority 2020, published 2023)
